Measurements as given in patent US20220363665A1, “QUINOLINE COMPOUNDS FOR THE TREATMENT OF AUTOIMMUNE DISEASE” (Hoffmann-La Roche Inc., priority 2019, published 2022).

What was measured:
Format in all cases: in vitro ADME
[1] = Human microsome stability assay; settings: 1 μM test compound, 0.5 mg/mL protein
Experimental: The human microsomal stability assay is used for early assessment of metabolic stability of a test compound in human liver microsomes.
Human liver microsomes (Cat. NO.: 452117, Corning, USA; Cat. NO.: H2610, Xenotech, USA) were preincubated with test compound for 10 minutes at 37° C. in 100 mM potassium phosphate buffer, pH 7.4. The reactions were initiated by adding NADPH regenerating system. The final incubation mixtures contained 1 μM test compound, 0.5 mg/mL liver microsomal protein, 1 mM MgCl2, 1 mM NADP, 1 unit/mL isocitric dehydrogenase and 6 mM isocitric acid in 100 mM potassium phosphate buffer, pH 7.4. After incubation times of 0, 3, 6, 9, 15 and 30 minutes at 37° C., 300 μL of cold ACN (including internal standard) was added to 100 μL incubation mixture to terminate the reaction. Following precipitation and centrifugation, the amount of compound remaining in the samples were determined by LC-MS/MS. Controls of no NADPH regenerating system at zero and 30 minutes were also prepared and analyzed. The results were categorized as: low (<7.0 mL/min/kg), medium (7.0˜16.2 mL/min/kg) and high (16.2-23.2 mL/min/kg).

CYP2D6 = biological target: T1, CYP2D6 (Homo sapiens, UniProt P10635); experiment: CYP inhibition assay in human liver microsome, CYP2D6; settings: HLM, dextromethorphan substrate; for inhibition at 10 min, 10 µM: human, liver microsomes, probe dextromethorphan, read-out: CYP inhibition % @10 uM (2D6)
T1 construct: tissue BD-Gentest 452117; host or cells: human liver microsomes
Experimental: (§1) This is a high throughput screening assay used for assessment of reversible inhibition of CYP2C9, CYP2D6, and CYP3A4 activity of test compounds in human liver microsome (HLM) in early discovery stage.
(§2) 10 mM DMSO stock solutions of test compounds were diluted in DMSO to generate 2 mM intermediate stock solution. 250 nL of intermediate stock solution were transferred in duplicate into 3 separate 384 well microtitre plates (assay-ready plates). A mixture of HLM and each substrate was made up. 45 μL of HLM substrate mix was then transferred to each well of an assay ready plate and mixed. The negative (solvent) and positive controls (standard inhibitor for each CYP) were included in each assay ready plate. The assay ready plate was warmed to 37° C. in an incubator over 10 minutes. 5 μL pre-warmed NADPH regenerating system was added to each incubation well to start the reaction. Final incubation volume was 50 μL. The assay plate then was placed back in the 37° C. incubator. After 5 minutes incubation (10 minutes for CYP2D6), incubates were quenched by addition of 50 μL quench reagent containing internal standards (400 ng/mL 13C6-4′-OH-Diclofenac, 20 ng/mL D3-Dextrorphan and 20 ng/mL D4-1′OH-Midazolam in acetonitrile). The supernatants were collected for RapidFire/MS/MS analysis.
(§3) RapidFire online solid phase extraction/sample injection system (Agilent) coupled with API4000 triple quadrupole mass spectrometer (AB Sciex) were used for sample analysis. The mobile phase composed of acetonitrile and water supplemented with 0.1% formic acid. A C4 solid phase extraction cartridge is used for sample separation. MS detection is achieved in positive ion MRM mode.
(§4) Peak areas for substrate, metabolite and internal standard are determined using the
(§5) RapidFire integrator software (version 3.6.12009.12296). Peak area ratios (PAR) of metabolite and internal standard (stable-labelled metabolite) are then calculated. The measurement window for each experiment is then defined:
(§6) PAR (0% activity)=average PAR for all incubations containing concentrated inhibitor;
(§7) Par (100% activity)=average PAR for all incubations containing no inhibitor (DMSO controls);
(§8) % Activity (test inhibitor) =[PAR(test inhibitor)-PAR(0% activity)][PAR(100% activity)-PAR(0% activity)];
(§9) % Inhibition (test inhibitor)=100-% Activity (test inhibitor).
(§10) Percentage inhibition data are then reported, in duplicate, for the 3 CYP enzymes.

CYP3A4 = biological target: T2, CYP3A4 (Homo sapiens, UniProt P08684); experiment: CYP inhibition assay in human liver microsome, CYP3A4; settings: HLM, midazolam substrate; for inhibition at 5 min, 10 µM: human, liver microsomes, probe midazolam, read-out: CYP inhibition % @10 uM (3A4)
T2 construct: tissue BD-Gentest 452117; host or cells: human liver microsomes
Experimental: as §1, §2, §3, §4, §5, §6, §7, §8, §9, §10

T2 sequence (P08684 whole entry): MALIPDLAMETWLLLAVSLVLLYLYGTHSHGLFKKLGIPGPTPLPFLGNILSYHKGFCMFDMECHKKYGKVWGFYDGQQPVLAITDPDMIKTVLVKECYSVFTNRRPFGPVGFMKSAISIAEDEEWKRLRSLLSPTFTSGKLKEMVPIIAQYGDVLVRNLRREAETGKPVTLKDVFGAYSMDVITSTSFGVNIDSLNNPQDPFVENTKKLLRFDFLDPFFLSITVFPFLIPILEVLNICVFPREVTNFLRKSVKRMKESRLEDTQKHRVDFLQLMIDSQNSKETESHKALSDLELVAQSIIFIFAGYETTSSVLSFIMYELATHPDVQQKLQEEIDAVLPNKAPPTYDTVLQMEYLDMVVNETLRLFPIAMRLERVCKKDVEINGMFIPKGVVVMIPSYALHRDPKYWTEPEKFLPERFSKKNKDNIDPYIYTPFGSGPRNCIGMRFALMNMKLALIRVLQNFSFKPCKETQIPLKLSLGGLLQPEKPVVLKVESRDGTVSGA
T1 sequence (P10635 whole entry): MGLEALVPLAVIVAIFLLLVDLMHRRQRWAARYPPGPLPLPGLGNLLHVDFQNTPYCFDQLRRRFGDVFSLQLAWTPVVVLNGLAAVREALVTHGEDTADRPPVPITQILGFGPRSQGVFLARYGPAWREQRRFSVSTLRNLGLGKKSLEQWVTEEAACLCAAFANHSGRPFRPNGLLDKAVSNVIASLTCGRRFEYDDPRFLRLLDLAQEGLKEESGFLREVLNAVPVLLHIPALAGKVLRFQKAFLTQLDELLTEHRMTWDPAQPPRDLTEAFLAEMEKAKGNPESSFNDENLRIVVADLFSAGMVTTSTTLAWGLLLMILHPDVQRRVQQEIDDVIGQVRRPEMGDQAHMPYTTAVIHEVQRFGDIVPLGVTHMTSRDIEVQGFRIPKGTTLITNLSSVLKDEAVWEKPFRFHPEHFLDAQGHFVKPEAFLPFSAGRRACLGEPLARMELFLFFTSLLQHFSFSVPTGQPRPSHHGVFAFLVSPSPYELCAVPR

Row | SMILES | clearance in human liver microsomes [1] | inhibition at 10 min, 10 µM (CYP2D6) | inhibition at 5 min, 10 µM (CYP3A4) | CYP inhibition % @10 uM (3A4) (CYP3A4; 10 µM) | CYP inhibition % @10 uM (2D6) (CYP2D6)
1 | C[C@@H]1CN(c2ccc(C(F)(F)F)c3ncccc23)C[C@H](C(=O)NC2CC3CCCC(C2)N3)O1 (single isomer, unassigned) [Example 34A] | 6.24 mL/min/kg | – | – | – | 3%
2 | C[C@@H]1CN(c2ccc(C(F)(F)F)c3ncccc23)C[C@H](C(=O)NC2CC3CCCC(C2)N3)O1 (single isomer, unassigned) [Example 34B] | 6.17 mL/min/kg | – | -28% | – | −10%
3 | C[C@H]1C[C@@H](N)CN(c2ccc(C(F)(F)F)c3ncccc23)C1 [Example 1, (3R,5S)-5-methyl-1-[8-(trifluoromethyl)-5-quinolyl]piperidin-3-amine] | 6.15 mL/min/kg | – | – | – | –
4 | C[C@@H]1CN(c2ccc(C(F)(F)F)c3ncccc23)C[C@H](C(=O)NC2CNC[C@@H]2F)O1 (stereo partly drawn) [Example 2, cis-(2R,6R)-N-(4-fluoropyrrolidin-3-yl)-6-methyl-4-[8-(trifluoromethyl)-5-quinolyl]morpholine-2-carboxamide] | 6.15 mL/min/kg | – | – | – | –
5 | C[C@@H]1CN(c2ccc(C(F)(F)F)c3ncccc23)C[C@H](C(=O)NC2CCN(C)CC2)O1 [Example 5, (2R,6R)-6-methyl-N-(1-methyl-4-piperidyl)-4-[8-(trifluoromethyl)-5-quinolyl]morpholine-2-carboxamide] | 6.15 mL/min/kg | 16% | -13% | – | –
6 | C[C@@H]1CN(c2ccc(C(F)(F)F)c3ncccc23)C[C@H](C(=O)NCC(C)(C)N)O1 [Example 6, (2R,6R)-N-(2-amino-2-methyl-propyl)-6-methyl-4-[8-(trifluoromethyl)-5-quinolyl]morpholine-2-carboxamide] | 6.15 mL/min/kg | 13% | -10% | – | –
7 | C[C@@H]1CN(c2ccc(C(F)(F)F)c3ncccc23)C[C@H](C(=O)N2CC(N)C2)O1 [Example 7, (3-aminoazetidin-1-yl)-[(2R,6R)-6-methyl-4-[8-(trifluoromethyl)-5-quinolyl]morpholin-2-yl]methanone] | 6.15 mL/min/kg | – | – | – | –
8 | C[C@@H]1CN(c2ccc(C(F)(F)F)c3ncccc23)C[C@H](C(=O)NC2CCCNCC2)O1 (stereo partly drawn) [Example 8, (2R,6R)-N-(azepan-4-yl)-6-methyl-4-[8-(trifluoromethyl)-5-quinolyl]morpholine-2-carboxamide] | 6.15 mL/min/kg | 10% | -34% | – | –
9 | C[C@@H]1CN(c2ccc(C(F)(F)F)c3ncccc23)C[C@H](C(=O)N2CCC(N)C2)O1 (stereo partly drawn) [Example 10, (3-aminopyrrolidin-1-yl)-[(2R,6R)-6-methyl-4-[8-(trifluoromethyl)-5-quinolyl]morpholin-2-yl]methanone] | 6.15 mL/min/kg | 26% | 10% | – | –
10 | C[C@@H]1CN(c2ccc(C(F)(F)F)c3ncccc23)C[C@H](C(=O)N2CCC(N)CC2)O1 [Example 12, (4-amino-1-piperidyl)-[(2R,6R)-6-methyl-4-[8-(trifluoromethyl)-5-quinolyl]morpholin-2-yl]methanone] | 6.15 mL/min/kg | 7% | – | – | –
11 | Cc1ccc(N2C[C@@H](C)O[C@@H](C(=O)NC3CCN(C)CC3)C2)c2cccnc12 [Example 16, (2R,6R)-6-methyl-N-(1-methyl-4-piperidyl)-4-(8-methyl-5-quinolyl)morpholine-2-carboxamide] | 6.15 mL/min/kg | 5% | 2% | – | –
12 | Cc1ccc(N2C[C@@H](C)O[C@@H](C(=O)NCC3CN(C)CCO3)C2)c2cccnc12 (stereo partly drawn) [Example 17, (2R,6R)-6-methyl-N-[(4-methylmorpholin-2-yl)methyl]-4-(8-methyl-5-quinolyl)morpholine-2-carboxamide] | 6.15 mL/min/kg | 3% | -5% | – | –
13 | C[C@@H]1CN(c2ccc([N+](=O)[O-])c3ncccc23)C[C@H](C(=O)NC2CCN(C)CC2)O1 [Example 20, (2R,6R)-6-methyl-N-(1-methyl-4-piperidyl)-4-(8-nitro-5-quinolyl)morpholine-2-carboxamide] | – | -12% | 6% | – | –
14 | C[C@@H]1CN(c2ccc(Cl)c3ncccc23)C[C@H](C(=O)N[C@H]2CNC[C@H]2F)O1 [Example 22, (2R,6R)-4-(8-chloro-5-quinolyl)-N-[(3S,4R)-4-fluoropyrrolidin-3-yl]-6-methyl-morpholine-2-carboxamide] | 6.15 mL/min/kg | – | – | – | –
15 | C[C@H]1C[C@@H](N)CN(c2ccc(Cl)c3ncccc23)C1 [Example 23, (3R,5S)-1-(8-chloro-5-quinolyl)-5-methyl-piperidin-3-amine] | 6.15 mL/min/kg | 35% | – | – | –
16 | C[C@@H]1CN(c2ccc(Cl)c3ncccc23)C[C@H](C(=O)NC2CCN(C)CC2)O1 [Example 24, (2R,6R)-4-(8-chloro-5-quinolyI)-6-methyl-N-(1-methyl-4-piperidyl)morpholine-2-carboxamide] | 6.15 mL/min/kg | -6% | – | – | –
17 | C[C@@H]1CN(c2ccc(C(F)(F)F)c3ncccc23)C[C@H](C(=O)NC2CNCC(F)(F)C2)O1 (stereo partly drawn) [Example 28, (2R,6R)-N-(5,5-difluoro-3-piperidyl)-6-methyl-4-[8-(trifluoromethyl)-5-quinolyl]morpholine-2-carboxamide] | – | 2% | -30% | – | –
18 | C[C@@H]1CN(c2ccc(C(F)(F)F)c3ncccc23)C[C@H](C(=O)NC[C@@H]2CC(F)(F)CN2)O1 [Example 30] | – | 20% | 20% | – | –
19 | C[C@@H]1CN(c2ccc(C(F)(F)F)c3ncccc23)C[C@H](C(=O)N2CCC3(CCNCC3)CC2)O1 [Example 32, 3,9-diazaspiro[5.5]undecan-3-yl-[(2R,6R)-6-methyl-4-[8-(trifluoromethyl)-5-quinolyl]morpholin-2-yl]methanone] | – | -22% | -2% | – | –
20 | C[C@@H]1CN(c2ccc(I)c3ncccc23)C[C@H](C(=O)NCC2CN(C)CCO2)O1 (stereo partly drawn) [Example 39, (2R,6R)-4-(8-iodo-5-quinolyl)-6-methyl-N-[(4-methylmorpholin-2-yl)methyl]morpholine-2-carboxamide] | – | 5% | 5% | – | –

Continued, in another order:

Row | clearance in human liver microsomes [1] | inhibition at 10 min, 10 µM (CYP2D6) | inhibition at 5 min, 10 µM (CYP3A4) | CYP inhibition % @10 uM (3A4) (CYP3A4; 10 µM) | SMILES | CYP inhibition % @10 uM (2D6) (CYP2D6)
21 | 6.15 mL/min/kg | 9% | 5% | – | C[C@@H]1CN(c2ccc(C(F)(F)F)c3ncccc23)C[C@H](C(=O)N[C@@H]2CNC[C@@H]2F)O1 (single isomer, unassigned) [Example 2A] | –
22 | 6.15 mL/min/kg | – | – | – | C[C@@H]1CN(c2ccc(C(F)(F)F)c3ncccc23)C[C@H](C(=O)N[C@H]2CNC[C@H]2F)O1 (single isomer, unassigned) [Example 2B] | –
23 | 6.15 mL/min/kg | – | – | −36% | C[C@@H]1CN(c2ccc(C(F)(F)F)c3ncccc23)C[C@H](C(=O)NC2CC3CNCC32)O1 (single isomer, unassigned) [Example 49B] | −12%
24 | 6.15 mL/min/kg | – | – | – | C[C@@H]1CN(c2ccc(C(F)(F)F)c3ncccc23)C[C@H](C(=O)NC2CC3CNCC32)O1 (single isomer, unassigned) [Example 49C] | 8%
